Key:
Beagle dogs [1] = experiment: i.v./p.o. cross over study in dogs, toxicological assessment; format: in vivo; conditions: 2 mg/kg i.v. or 10 mg/kg p.o.
Method: (§1) Trimebutine 3-thiocarbamoyl-benzenesulfonate was administered as a cross over design once, each dosing separated by at least a 7-day washout period. During this study, assessments included mortality checks, clinical observations, and body weights. Feces and urine samples were collected up to 48 hr post-administration. Blood samples were also collected for pharmacokinetic evaluations on Days 1 and 8 at 10 time points. Pharmacokinetic data are presented in the two following Figures.

[2] = accelerated stability protocol; format: physicochemical; conditions: Polymorph B, 40±2° C., 75±5% RH, six months
Method: The long-term stability of Example 20 was assessed using an accelerated stability protocol. For this purpose, samples of Example 20—Polymorph B was placed in borosilicate vials polyethylene plastic bags, sealed in an aluminum bag, and placed in a fiber drum with desiccant. The samples where then subjected to 40±2° C. with 75±5% relative humidity (RH), and stability was monitored at time 0, 1, 2, 3 and 6 months using a standardized HPLC method.

Beagle dogs [3] = experiment: MTD determination following p.o. administration in dogs; format: in vivo
Method: For MTD determination, the compound was administered once on each occasion by oral gavage, in an incremental fashion to animals, until the maximum tolerated dose is considered to have been reached. This dose was established at 2,000 mg/kg, i.e., the highest dose administered in animals. […] The animal was back to normal activity levels approximately 1 hr post dosing.

male Balb/C mice = experiment: preliminary toxicological evaluation following i.p. administration in mice; format: in vivo; conditions: 50 mg/kg i.p.
Method: A preliminary toxicological evaluation of the compound was done in 6-8 week old male Balb/C mice. […] Following administration of the test article, animals were observed hr for the first 8 hr post-dosing for clinical signs and twice daily thereafter until termination on Day 7. Body weights were determined on Days 1, 2, 3 and 7. Three mice were sacrificed by exsanguination at 24 hr post dosing or on Day 7, and a gross necropsy was performed in all animals. Particular attention was paid to the abdominal, thoracic and cranial cavities for reporting of any unusual observations.

[4] = recovery of counter-ion and metabolites in urine and feces of dogs; format: in vivo; conditions: for mean total recovery of the unchanged counter-ion: urine and feces up to 48 hr
Method: as §1
After proper preparation of the urine and feces samples, 3-thiocarbamoyl-benzenesulfonate counter-ion and its two potential metabolites (3-cyanobenzenesulfonate and 3-sulfobenzoate) were assessed using a LC/MS/MS method, with analysis by MRM, ESI-. Calibration curves were prepared for each analyte in blank feces homogenate, following the same procedure.

male Sprague-Dawley rats = experiment: preliminary toxicological evaluation following p.o. administration in rats; format: in vivo
Method: A preliminary toxicological evaluation of the compound was done in 250-300 g male Sprague-Dawley rats. Animals were randomized into one of three dosing group, i.e. 250, 500 or 1,000 mg/kg administered by oral gavage. Following administration of the test article, animals were observed hourly for the first 8 hr post-dosing for clinical signs and twice daily thereafter until termination on Day 7. Three animals per group were sacrificed by exsanguination under general anesthesia at 24-hr post dosing or on Day 7 and a gross necropsy was performed in all animals. Additionally, all three rats having received the 500 mg/kg dose and scheduled for sacrifice on Day 7 were placed in individual metabolic cages immediately following test article administration, in order to collect feces and urine during 48 hr. Blood samples were collected terminally from each rat for hematology and serum chemistry evaluation.

[5] = system: colorectal distension induced pain; experiment: electromyographic colorectal distension (CRD) induced pain model; format: in vivo, mice; conditions: for VMR response to colorectal distension compared to the control group: mice, 30 and 60 mg/kg oral
From the text: The purpose was to evaluate the antinociceptive effects of Example 20 in an electromyographic colorectal distension (CRD) induced pain model. This model is recognized by experts in the field to be less subjective than the rat Abdominal Withdrawal Response (AWR) colorectal distension model, and has been used to assess the analgesic and sedative properties of several new compounds, including IBS drugs Zhuo, M; Gebhart, G. F. Facilitation and attenuation of a visceral nociceptive reflex from the rostroventral medulla in the rat. Gastroenterology, 2002, 122 1007-1019; Larsson, M. H.; Rapp, L.; Lindström, E. Effect of DSS-induced colitis on visceral sensitivity to colorectal distension in mice. Neurogastroenterology & Motility, 2006, 18, 144-152; Arvidsson, S.; Larsson, M.; Larsson, H.; Lindström, E.; Martinez, V. J. Pain, 2006, 7, 108-118; Jones, R. C. W.; Gebhart, G. F. Models of Visceral Pain: Colorectal Distension (CRD). Currrent Protocols in Pharmacology, 2004, 5.36, DOI: 10.1002/0471141755.ph0536s25.]
Three groups of 10 male mice (C57Bl6) were used: 2 groups received treatments with […] and one group received their vehicle […].
The groups were divided as follows: • i. 2 groups of 10 mice received an oral administration of Example 20 at two doses, 30 and 60 mg/kg. • ii. 1 group of 10 mice received an oral administration of the vehicle (PEG 200) use to administer Example 20.
All groups were implanted with electrodes in the abdominal external oblique musculature under anaesthesia. The surgery for electrode implantation was performed 5 days before the day of the experiment. The day of the experiment, colorectal distension (CRD) was performed in all animals, by inserting a balloon (10-mm long) into the colon, at 5 mm from the anus. The balloon was inflated with warm water, in a stepwise manner, from 0 to 60 mm Hg, with 15 mm Hg increments. […] At various times after these treatments: 2, 4 and 6-hours, the same series of stepwise CRD were performed and electromyographic responses (VMR in millivolts/sec) were recorded.

[6] = male rats, single oral dose 250, 500 or 1000 mg/kg

SMILES: CCC(COC(=O)c1cc(OC)c(OC)c(OC)c1)(c1ccccc1)N(C)C.NC(=S)c1cccc(S(=O)(=O)O)c1 (centres unmarked) [Example 20]
- bodyweight (Beagle dogs [1]): no change in bodyweight
- death (Beagle dogs [1]): no death reported
- toxicity (Beagle dogs [1]): no indication of any toxicity
- HPLC purity after storage [2]: > 99.7%
- degradation [2]: no degradation had been observed
- clinical observations, male dog (Beagle dogs [3]; 2,000 mg/kg p.o.): limited to vomiting a few min following dosing administration
- clinical signs, female dog (Beagle dogs [3]; 2,000 mg/kg p.o.): Decreased activity level, vomiting, bowel movement, yellowish fluid fecal consistency, vocalization about 15-20 min post-dose, decreased respiration, weak behavior, eyes partially closed, and mild transient tremors
- blood pressure, male dog (Beagle dogs [3]; 2,000 mg/kg p.o., 30 min post dose compared to pre-dose): dropped slightly
- blood pressure, female dog (Beagle dogs [3]; 2,000 mg/kg p.o., approximately 30 min post dose): almost no change in blood pressure
- time back to normal activity levels, female dog (Beagle dogs [3]; 2,000 mg/kg p.o., post dosing): approximately 1 hr
- doses orally administered well tolerated (Beagle dogs [3]; Beagle dogs, oral gavage): up to 2,000 mg/kg
- maximum tolerated dose (MTD) (Beagle dogs [3]; Beagle dogs, oral gavage, highest dose administered): 2,000 mg/kg
- tolerability (male Balb/C mice): well-tolerated
- macroscopic finding at gross necropsy (male Balb/C mice; 24 hr or Day 7): no significant macroscopic finding
- clinical signs (male Balb/C mice; 7 days): no clinical signs were noted
- mortality (male Balb/C mice; 7 days): no mortality
- body weights (male Balb/C mice; Days 1, 2, 3 and 7): remained stable
- additional recovery as metabolite 3-cyanobenzenesulfonate ([4]; 2 mg/kg i.v.): 4.7%
- recovery associated to 3-sulfobenzoate ([4]; 2 mg/kg i.v.): 0.6%
- mean total recovery of the unchanged counter-ion ([4]; 2 mg/kg i.v.): about 72%
- 3-sulfobenzoate in urine ([4]; 10 mg/kg p.o.): not detected
- additional recovery as metabolite 3-cyanobenzenesulfonate ([4]; 10 mg/kg p.o.): 14.5%
- recovery associated to 3-sulfobenzoate ([4]; 10 mg/kg p.o.): 1.7%
- mean total recovery of the unchanged counter-ion ([4]; 10 mg/kg p.o.): about 61%
- hematology parameters (male Sprague-Dawley rats; male rats, single oral dose): No significant changes
- serum biochemistry variations compared to control (e.g., amylase, creatinine) (male Sprague-Dawley rats; male rats, single oral dose): minor, transient and remained within the normal range for the species
- mortality or clinical signs (male Sprague-Dawley rats; [6]): No mortality or clinical signs were observed
- tolerability (male Sprague-Dawley rats; [6]): well tolerated
- necropsy findings (male Sprague-Dawley rats; rats sacrificed on Day 7, 500 or 1000 mg/kg p.o.): pale and/or enlarged lungs in a few animals
- antinociceptive effects on colorectal distension induced pain ([5]; VMR mouse model, overall conclusion): significant antinociceptive effects
- VMR response to colorectal distension compared to the control group ([5]; after 2 and 4 hours): overall reduction of the VMR response
- VMR response to colorectal distension compared to the control group ([5]; at 6 hours, not statistically different from control): trend toward efficacy

Reference: patent US20150057316A1, “NOVEL SULFONATE-BASED TRIMEBUTINE SALTS” (GICARE PHARMA INC., priority 2012, published 2015)
